pIC50: −log10 of the molar value. Activity calls are given as the source filed them. The calls are words filed in the database; no cut-off is given here.
Assays:
U-251 = test: Antiproliferative activity against human U-251 cells assessed as growth inhibition incubated for 72 hrs by CCK-8 assay; format: functional, cell-based; conditions: U-251, 72 h
C6 [1] = test: Antiproliferative activity against rat C6 cells assessed as growth inhibition incubated for 72 hrs by CCK-8 assay; format: functional, cell-based; conditions: C6, 72 h
[2] = molecular target: T1, Prostaglandin G/H synthase 2 (Homo sapiens, UniProt P35354); test: Inhibition of human COX2 assessed as fluorescence by microplate reader
T1 sequence (P35354 whole entry): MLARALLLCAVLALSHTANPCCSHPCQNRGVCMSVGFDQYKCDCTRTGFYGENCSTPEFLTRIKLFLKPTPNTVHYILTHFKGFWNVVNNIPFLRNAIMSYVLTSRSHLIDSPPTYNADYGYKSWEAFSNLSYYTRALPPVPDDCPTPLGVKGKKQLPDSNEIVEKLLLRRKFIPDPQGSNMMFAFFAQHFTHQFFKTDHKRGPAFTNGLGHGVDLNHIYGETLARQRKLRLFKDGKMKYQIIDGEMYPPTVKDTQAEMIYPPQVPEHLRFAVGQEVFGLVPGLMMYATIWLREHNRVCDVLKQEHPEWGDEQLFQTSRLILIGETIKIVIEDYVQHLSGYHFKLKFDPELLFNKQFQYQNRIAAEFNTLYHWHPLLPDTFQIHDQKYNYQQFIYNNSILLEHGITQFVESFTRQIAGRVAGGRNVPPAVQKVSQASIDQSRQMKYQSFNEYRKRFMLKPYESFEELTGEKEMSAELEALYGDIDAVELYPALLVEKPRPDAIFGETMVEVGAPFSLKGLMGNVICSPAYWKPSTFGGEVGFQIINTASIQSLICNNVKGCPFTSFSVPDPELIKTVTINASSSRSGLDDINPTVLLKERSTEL

U-87 MG = test: Antiproliferative activity against human U-87 MG cells assessed as growth inhibition incubated for 72 hrs by CCK-8 assay; format: functional, cell-based, U-87MG ATCC
BV-2 = test: Inhibition of MMP9 production in mouse BV-2 cells co-cultured with rat C6 glioma cells at 2 uM incubated for 24 hrs by Western blot analysis; format: functional, cell-based
C6 [3] = test: Antitumor activity against rat C6 cells inoculated orthotopic Sprague-Dawley rat model assessed as decrease in PGE2 in tumor tissue at 50 mg/kg, ip twice a day treated 3 days after tumor cell injection measured for 13 days after tumor implantation […]; format: functional, organism-based; conditions: time 3.0 day
C6 [4] = test: Antitumor activity against rat C6 cells inoculated orthotopic Sprague-Dawley rat model assessed as reduction tumor volume at 50 mg/kg, ip twice a day treated 3 days after tumor cell injection measured for 13 days after tumor implantation; format: functional, organism-based; conditions: time 3.0 day
C6 [5] = test: Antitumor activity against rat C6 cells inoculated orthotopic Sprague-Dawley rat model assessed as decrease in p-STAT3 in tumor tissue at 50 mg/kg, ip twice a day treated 3 days after tumor cell injection measured for 13 days after tumor implantation by Western blot analysis; format: functional, organism-based; conditions: time 3.0 day
[6] = Toxicity in rat C6 cells inoculated orthotopic Sprague-Dawley rat model assessed as body weight change at 50 mg/kg, ip twice a day administered for 13 days of tumor implantation; format: organism-based; conditions: in vivo, 312 h, time 13 day
C6 [7] = test: Antitumor activity against rat C6 cells inoculated orthotopic Sprague-Dawley rat model assessed as reduction tumor weight at 50 mg/kg, ip twice a day treated 3 days after tumor cell injection measured for 13 days after tumor implantation; format: functional, organism-based; conditions: time 3.0 day
C6 [8] = test: Antitumor activity against rat C6 cells inoculated orthotopic Sprague-Dawley rat model assessed as tumor growth inhibition at 50 mg/kg, ip twice a day treated 3 days after tumor cell injection measured for 13 days after tumor implantation; format: functional; conditions: 72 h, time 3 day, read-out: TGI
C6 [9] = test: Antitumor activity against rat C6 cells inoculated orthotopic Sprague-Dawley rat model assessed as increase in E-cadherin in tumor tissue at 50 mg/kg, ip twice a day treated 3 days after tumor cell injection measured for 13 days after tumor implantation by Western blot analysis; format: functional, organism-based; conditions: time 3.0 day
C6 [10] = test: Antitumor activity against rat C6 cells inoculated orthotopic Sprague-Dawley rat model assessed as decrease in VEGF-A in tumor tissue at 50 mg/kg, ip twice a day treated 3 days after tumor cell injection measured for 13 days after tumor implantation by Western blot analysis; format: functional, organism-based; conditions: time 3.0 day

| pIC50 (U-251) | pIC50 [2] | pIC50 (U-87 MG) | SMILES | pIC50 (C6 [1]) | further results |
| --- | --- | --- | --- | --- | --- |
| 4.68 | < 4.40 | < 4.40 | O=C(NCCc1c[nH]c2ccccc12)c1ccccc1Nc1cccc(Br)c1 | < 4.40 | – |
| 4.61 | 5.71 | < 4.40 | Cc1ncccc1Nc1ccccc1C(=O)NCCc1c[nH]c2ccccc12 | < 4.40 | – |
| < 4.40 | – | < 4.40 | COc1ccc2[nH]cc(CCNC(C)=O)c2c1 [MELATONIN] | < 4.40 | – |
| 4.49 | 5.21 | < 4.40 | COc1ccc(Nc2ccccc2C(=O)NCCc2c[nH]c3ccccc23)cc1 | < 4.40 | – |
| 4.60 | < 4.40 | < 4.40 | O=C(NCCc1c[nH]c2ccccc12)c1ccccc1Nc1cncc(Br)c1 | < 4.40 | – |
| 4.61 | 4.75 | < 4.40 | Cc1cncc(Nc2ccccc2C(=O)NCCc2c[nH]c3ccccc23)c1 | < 4.40 | – |
| 4.48 | < 4.40 | < 4.40 | O=C(NCCc1c[nH]c2ccccc12)c1ccccc1Nc1ccccc1I | < 4.40 | – |
| 4.76 | < 4.40 | 4.45 | O=C(NCCc1c[nH]c2ccccc12)c1ccccc1Nc1ccc(C(F)(F)F)cc1 | < 4.40 | – |
| 4.56 | 5.53 | < 4.40 | O=C(NCCc1c[nH]c2ccccc12)c1ccccc1Nc1cccnc1Cl | 4.62 | – |
| < 4.40 | 5.84 | < 4.40 | CN(C)c1ccc(Nc2ccccc2C(=O)NCCc2c[nH]c3ccccc23)cc1 | < 4.40 | inhibition (BV-2): Active |
| 4.83 | < 4.40 | < 4.40 | O=C(NCCc1c[nH]c2ccccc12)c1ccccc1Nc1ccccc1Cl | < 4.40 | – |
| 4.60 | 4.63 | < 4.40 | O=C(NCCc1c[nH]c2ccccc12)c1ccccc1Nc1cccnc1 | < 4.40 | – |
| 4.52 | < 4.40 | < 4.40 | Cc1ccccc1Nc1ccccc1C(=O)NCCc1c[nH]c2ccccc12 | < 4.40 | – |
| 4.75 | 4.71 | < 4.40 | Cc1ccc(Nc2ccccc2C(=O)NCCc2c[nH]c3ccccc23)cn1 | < 4.40 | – |
| < 4.40 | < 4.40 | < 4.40 | O=C(NCCc1c[nH]c2ccccc12)c1ccccc1Nc1cccc2cccnc12 | < 4.40 | – |
| 4.67 | < 4.40 | < 4.40 | O=C(NCCc1c[nH]c2ccccc12)c1ccccc1Nc1ccccc1Br | 4.75 | – |
| 4.88 | 4.51 | 4.63 | Cc1cccc(Nc2ccccc2C(=O)NCCc2c[nH]c3ccccc23)c1 | < 4.40 | – |
| 4.65 | < 4.40 | < 4.40 | O=C(NCCc1c[nH]c2ccccc12)c1ccccc1Nc1cccc(Cl)c1 | < 4.40 | – |
| 4.74 | < 4.40 | < 4.40 | CCCCc1ccc(Nc2ccccc2C(=O)NCCc2c[nH]c3ccccc23)cc1 | < 4.47 | – |
| – | – | – | Cn1nnc2c(C(N)=O)ncn2c1=O [TEMOZOLOMIDE] | – | Activity (C6 [3]): Active; Activity (C6 [4]): Active; Activity (C6 [5]): Active; Activity [6]: Toxic; Activity (C6 [7]): Active; inhibition in vivo at 50 mg/kg (C6 [8]): 54.8%; Activity (C6 [9]): Active; Activity (C6 [10]): Active |
| < 4.40 | – | < 4.40 | Cc1ccc(-c2cc(C(F)(F)F)nn2-c2ccc(S(N)(=O)=O)cc2)cc1 [CELECOXIB] | < 4.40 | – |
| 4.58 | 5.37 | < 4.40 | O=C(NCCc1c[nH]c2ccccc12)c1ccccc1Nc1ccccc1F | < 4.40 | – |
| 4.69 | < 4.40 | < 4.40 | O=C(NCCc1c[nH]c2ccccc12)c1ccccc1Nc1cccc(F)c1 | < 4.40 | – |
| 4.86 | 5.22 | 4.46 | Cc1ccc(Nc2ccccc2C(=O)NCCc2c[nH]c3ccccc23)cc1 | < 4.40 | – |
| 4.89 | 5.61 | < 4.40 | O=C(NCCc1c[nH]c2ccccc12)c1ccccc1Nc1ccc(F)cc1 | 4.57 | – |
| < 4.40 | 5.25 | < 4.40 | O=C(NCCc1c[nH]c2ccccc12)c1ccccc1Nc1ccc(Br)cc1 | < 4.40 | – |
| < 4.40 | < 4.40 | < 4.40 | O=C(NCCc1c[nH]c2ccccc12)c1ccccc1Nc1ccc2nccnc2c1 | < 4.40 | – |
| < 4.40 | 5.92 | < 4.40 | Nc1ccccc1Nc1ccccc1C(=O)NCCc1c[nH]c2ccccc12 | < 4.40 | inhibition (BV-2): Active |
| 4.75 | 5.40 | < 4.40 | O=C(NCCc1c[nH]c2ccccc12)c1ccccc1Nc1ccc(Cl)cc1 | < 4.40 | – |

Source: ChEMBL document CHEMBL4825684, “Design, synthesis and biological evaluation of N-anthraniloyl tryptamine derivatives as pleiotropic molecules for the therapy of malignant glioma” (Eur J Med Chem, 2021)
